Earlier results on 1 compound are cited in patent US10035944B2, “Using synthetic acid compositions as alternatives to conventional acids in the oil and gas industry” (priority 2014, dated 2018).

The structures appear in SMILES notation.

For the series the following is noted: death in 2-3 minutes.

As for `Cl` [Hydrogen chloride gas, Hydrogen chloride], the “level at which death can occur” value is 1300-2000 ppm.
